Laboratory results from US20110178396A1, “Nicotinamide Derivatives” (CRC FOR BIOMEDICAL IMAGING DEVELOPMENT LTD., priority 2008, published 2011).
Blank lines part the entries; values can stand above or below the molecule they belong to.

Tested on: B16F0 melanoma tumour
Assay: Biodistribution in B16 melanoma bearing mice
Type: in vivo, C57BL/6J mice
Conditions: for Organ distribution Intestine / Organ distribution Liver / Organ distribution Spleen / Organ distribution Stomach / Organ distribution Thyroid / Organ distribution Tumour: B16F0 tumour, mean ± S.D.
Description: Animal experiments were performed in compliance with the NHMRC Australian Code of Practice for the care and use of animals for scientific purposes. Female C57BL/6J black and BALB/c nude albino mice of 5 weeks age were obtained from the Animal Resources Centre, Western Australia. B16F0 murine melanoma cells were originally obtained from European Collection of Cell Cultures (UK) and A375 human amelanotic melanoma cells were originally obtained from American Type Culture Collection (USA). Before transplantation, B16F0 and A375 melanoma cells were maintained as a monolayer in RPMI culture medium supplemented with 10% foetal calf serum and antibiotics and passaged with trypsinisation. Early passages were frozen and stored in liquid nitrogen. Cells were passaged to P=10 and then discarded. Frozen aliquots were grown in a monolayer culture to between 80-95% confluence and for transplantation were trypsinised and washed with Ca^2+ and Mg^2+ free phosphate buffered saline (PBS). For inoculation, B16F0 melanoma cells were resuspended in Ca^2+ and Mg^2+ free PBS at 3 or 5×10^6 viable cells per ml and 0.1 ml was subcutaneously injected at the left flank of 6-7 weeks old C57BL/6J mice. Eleven days later, tumours could be palpated in >98% of inoculated animals. A375 human melanoma cells were resuspended at 1×10^7 viablecells per ml and 0.1 ml was injected subcutaneously at the left flank of 6 weeks old BALB/c nude mice and 25-26 days later tumours could be palpated with ˜60% of inoculated animals developing tumours.
Eleven days (B16F0 melanoma) and 25 days (A375 human melanoma) after tumour transplantation, the [^18F]nicotinamides (0.5-1.5 MBq, 100 μl) and [^123I]nicotinamide (0.37-0.74 MBq, 100 μl) derivatives were injected intravenously via the tail vein into mice (15-18 g). Time points of 1, 3, 6, 24, 48, 72 h after injection were chosen for determining the distribution of each compound in various organs and tissues for the iodine-123 labelled compounds and between 15 min and 6 hours (e.g. 15 min, 30 min, 1 h, 2 h, 4 h or 6 h) were chosen for the ^18F-labelled compounds. At defined times post injection, groups of mice (n=5) were weighed, sacrificed by CO2 administration followed by cervical dislocation and dissected. Selected organs were weighed and their radioactivity measured with a γ-counter. The remaining activity in the carcass was also determined in order to obtain the total activity in the mouse at defined time points. The fraction of injected activity (% ID) in the organ was calculated by comparison with suitable dilutions of the injected dose. Then, the radioactivity concentration in the organ (% ID/g) was found by dividing the % ID for each organ by the weight of the organ.

[1] = B16 tumour, C57BL/6J mice, 1 h, mean ± SD, n = 5
[2] = B16 tumour, C57BL/6J mice, 6 h, mean ± SD, n = 5
[3] = B16 tumour, C57BL/6J mice, 24 h, mean ± SD, n = 5
[4] = B16 melanoma bearing mice, 15 min

Organ distribution Intestine (C57BL/6J mice, 1 h, n = 5): 58 ± 2 % ID/organ
Organ distribution Liver (C57BL/6J mice, 1 h, n = 5): 3.6 ± 0.9 % ID/organ
Organ distribution Spleen (C57BL/6J mice, 1 h, n = 5): 0.05 ± 0.01 % ID/organ
Organ distribution Stomach (C57BL/6J mice, 1 h, n = 5): 1.7 ± 0.6 % ID/organ
Organ distribution Thyroid (C57BL/6J mice, 1 h, n = 5): 0.30 ± 0.08 % ID/organ
Organ distribution Tumour (C57BL/6J mice, 1 h, n = 5): 2.6 ± 1.0 % ID/organ
Organ distribution Intestine (C57BL/6J mice, 6 h, n = 5): 30 ± 3 % ID/organ
Organ distribution Liver (C57BL/6J mice, 6 h, n = 5): 1.9 ± 0.4 % ID/organ
Organ distribution Spleen (C57BL/6J mice, 6 h, n = 5): 0.04 ± 0.02 % ID/organ
Organ distribution Stomach (C57BL/6J mice, 6 h, n = 5): 4 ± 3 % ID/organ
Organ distribution Thyroid (C57BL/6J mice, 6 h, n = 5): 1.1 ± 0.4 % ID/organ
Organ distribution Tumour (C57BL/6J mice, 6 h, n = 5): 1.7 ± 0.5 % ID/organ
Organ distribution Intestine (C57BL/6J mice, 24 h, n = 5): 0.4 ± 0.1 % ID/organ
Organ distribution Liver (C57BL/6J mice, 24 h, n = 5): 0.13 ± 0.04 % ID/organ
Organ distribution Spleen (C57BL/6J mice, 24 h, n = 5): 0.00 ± 0.00 % ID/organ
Organ distribution Stomach (C57BL/6J mice, 24 h, n = 5): 0.07 ± 0.02 % ID/organ
Organ distribution Thyroid (C57BL/6J mice, 24 h, n = 5): 1.4 ± 0.6 % ID/organ
Organ distribution Tumour (C57BL/6J mice, 24 h, n = 5): 0.36 ± 0.07 % ID/organ
tumour standardized uptake value (SUVt) (B16 tumour, C57BL/6J mice, 1 h): 1.5 ± 0.4
Uptake Lung [1]: 0.90 ± 0.06 % ID/g
uptake BLOOD [1]: 0.89 ± 0.07 % ID/g
uptake BRAIN [1]: 0.20 ± 0.02 % ID/g
uptake HEART [1]: 0.49 ± 0.03 % ID/g
uptake KIDNEY [1]: 4.2 ± 0.6 % ID/g
uptake LIVER [1]: 3.6 ± 0.9 % ID/g
uptake TUMOUR [1]: 6.0 ± 1.6 % ID/g
tumour standardized uptake value (SUVt) (B16 tumour, C57BL/6J mice, 6 h): 1.7 ± 0.5
Uptake Lung [2]: 0.46 ± 0.13 % ID/g
uptake BLOOD [2]: 0.60 ± 0.17 % ID/g
uptake BRAIN [2]: 0.05 ± 0.01 % ID/g
uptake HEART [2]: 0.24 ± 0.08 % ID/g
uptake KIDNEY [2]: 2.4 ± 0.4 % ID/g
uptake LIVER [2]: 2.2 ± 0.6 % ID/g
uptake TUMOUR [2]: 3.9 ± 0.9 % ID/g
tumour standardized uptake value (SUVt) (B16 tumour, C57BL/6J mice, 24 h): 9 ± 2
Uptake Lung [3]: 0.03 ± 0.01 % ID/g
uptake BLOOD [3]: 0.04 ± 0.01 % ID/g
uptake BRAIN [3]: 0.001 % ID/g
uptake HEART [3]: 0.02 ± 0.01 % ID/g
uptake KIDNEY [3]: 0.08 ± 0.01 % ID/g
uptake LIVER [3]: 0.12 ± 0.02 % ID/g
uptake TUMOUR [3]: 1.0 ± 0.2 % ID/g
SMILES: O=C(c1cncc(I)c1)N1CCN(Cc2ccccc2)CC1 [[^123I]20, (4-Benzylpiperazin-1-yl)(5-iodopyridin-3-yl)methanone]

uptake BLOOD [4]: 2.8 % ID/g
uptake BONE [4]: 4.8 % ID/g
uptake BRAIN [4]: 6.2 % ID/g
uptake EYES [4]: 36.7 % ID/g
uptake GIT [4]: 7.8 % ID/g
uptake HEART [4]: 3.7 % ID/g
uptake KIDNEY [4]: 16.4 % ID/g
uptake LIVER [4]: 12.2 % ID/g
uptake LUNGS [4]: 5.0 % ID/g
uptake MUSCLE [4]: 4.0 % ID/g
uptake SKIN [4]: 2.7 % ID/g
uptake SPLEEN [4]: 11.8 % ID/g
uptake STOMACH [4]: 14.7 % ID/g
uptake THYROID [4]: 4.5 % ID/g
uptake TUMOUR [4]: 10.6 % ID/g
uptake BLOOD (B16 melanoma bearing mice, 1 h): 0.9 % ID/g
uptake BONE (B16 melanoma bearing mice, 1 h): 3.4 % ID/g
uptake BRAIN (B16 melanoma bearing mice, 1 h): 1.6 % ID/g
uptake EYES (B16 melanoma bearing mice, 1 h): 38.0 % ID/g
uptake GIT (B16 melanoma bearing mice, 1 h): 7.1 % ID/g
uptake HEART (B16 melanoma bearing mice, 1 h): 1.2 % ID/g
uptake KIDNEY (B16 melanoma bearing mice, 1 h): 4.0 % ID/g
uptake LIVER (B16 melanoma bearing mice, 1 h): 4.9 % ID/g
uptake LUNGS (B16 melanoma bearing mice, 1 h): 1.5 % ID/g
uptake MUSCLE (B16 melanoma bearing mice, 1 h): 1.2 % ID/g
uptake SKIN (B16 melanoma bearing mice, 1 h): 1.0 % ID/g
uptake SPLEEN (B16 melanoma bearing mice, 1 h): 9.2 % ID/g
uptake STOMACH (B16 melanoma bearing mice, 1 h): 6.8 % ID/g
uptake THYROID (B16 melanoma bearing mice, 1 h): 2.2 % ID/g
uptake TUMOUR (B16 melanoma bearing mice, 1 h): 14.6 % ID/g
uptake BLOOD (B16 melanoma bearing mice, 3 h): 0.2 % ID/g
uptake BONE (B16 melanoma bearing mice, 3 h): 4.6 % ID/g
uptake BRAIN (B16 melanoma bearing mice, 3 h): 0.4 % ID/g
uptake EYES (B16 melanoma bearing mice, 3 h): 36.3 % ID/g
uptake GIT (B16 melanoma bearing mice, 3 h): 7.1 % ID/g
uptake HEART (B16 melanoma bearing mice, 3 h): 0.3 % ID/g
uptake KIDNEY (B16 melanoma bearing mice, 3 h): 0.8 % ID/g
uptake LIVER (B16 melanoma bearing mice, 3 h): 1.9 % ID/g
uptake LUNGS (B16 melanoma bearing mice, 3 h): 0.3 % ID/g
uptake MUSCLE (B16 melanoma bearing mice, 3 h): 0.3 % ID/g
uptake SKIN (B16 melanoma bearing mice, 3 h): 0.2 % ID/g
uptake SPLEEN (B16 melanoma bearing mice, 3 h): 2.5 % ID/g
uptake STOMACH (B16 melanoma bearing mice, 3 h): 1.9 % ID/g
uptake THYROID (B16 melanoma bearing mice, 3 h): 2.1 % ID/g
uptake TUMOUR (B16 melanoma bearing mice, 3 h): 17.3 % ID/g
uptake BLOOD (B16 melanoma bearing mice, 6 h): 0.1 % ID/g
uptake BONE (B16 melanoma bearing mice, 6 h): 5.6 % ID/g
uptake BRAIN (B16 melanoma bearing mice, 6 h): 0.1 % ID/g
uptake EYES (B16 melanoma bearing mice, 6 h): 27.4 % ID/g
uptake GIT (B16 melanoma bearing mice, 6 h): 3.6 % ID/g
uptake HEART (B16 melanoma bearing mice, 6 h): 0.2 % ID/g
uptake KIDNEY (B16 melanoma bearing mice, 6 h): 0.2 % ID/g
uptake LIVER (B16 melanoma bearing mice, 6 h): 1.0 % ID/g
uptake LUNGS (B16 melanoma bearing mice, 6 h): 0.2 % ID/g
uptake MUSCLE (B16 melanoma bearing mice, 6 h): 0.2 % ID/g
uptake SKIN (B16 melanoma bearing mice, 6 h): 0.9 % ID/g
uptake SPLEEN (B16 melanoma bearing mice, 6 h): 0.5 % ID/g
uptake STOMACH (B16 melanoma bearing mice, 6 h): 0.7 % ID/g
uptake THYROID (B16 melanoma bearing mice, 6 h): 3.2 % ID/g
uptake TUMOUR (B16 melanoma bearing mice, 6 h): 4.8 % ID/g
SMILES: CCN(CC)CCNC(=O)c1cccnc1F [[^18F]MEL6, 2-Fluoro-N-[2-(diethylamino)ethyl]nicotinantide]
